For this assay, the target named is T1, Corticotropin-releasing factor receptor 1 (Homo sapiens, UniProt P34998).
T1 sequence (P34998 whole entry): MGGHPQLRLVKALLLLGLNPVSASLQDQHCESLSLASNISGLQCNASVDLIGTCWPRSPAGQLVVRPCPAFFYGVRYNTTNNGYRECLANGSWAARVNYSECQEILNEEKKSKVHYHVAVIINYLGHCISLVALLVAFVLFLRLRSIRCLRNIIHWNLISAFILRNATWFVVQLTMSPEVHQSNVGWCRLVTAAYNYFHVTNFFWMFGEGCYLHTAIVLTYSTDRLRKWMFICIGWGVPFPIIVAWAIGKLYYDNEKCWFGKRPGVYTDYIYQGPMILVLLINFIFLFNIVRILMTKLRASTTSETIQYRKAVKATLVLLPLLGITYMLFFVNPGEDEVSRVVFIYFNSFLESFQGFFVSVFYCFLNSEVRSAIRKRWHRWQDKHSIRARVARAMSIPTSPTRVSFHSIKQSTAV
Nature of the assay: Binding affinity against human Corticotropin releasing factor receptor 1.

Bounds are passed on as bounds.

The term Ki denotes the equilibrium dissociation constant of an inhibitor or competing ligand from its target. A lower Ki goes with a stronger hold on the target.

The molecule `CC(=O)C(=NNc1ccccc1Cl)Nc1cccc(Cl)c1` returned an inhibition constant Ki of 0.417 µM.

For `COc1cccc(NC(=NNc2ccccc2C)C(C)=O)c1`, the inhibitory constant (Ki) is 1.4 µM.

As to `CC(=O)/C(=N\c1ccccc1Cl)NNc1ccccc1C#N`, the inhibition constant (Ki) was above 10 µM.

Consider `CC(=O)C(=NNc1ccccc1S(N)(=O)=O)Nc1cccc(Cl)c1`, for which the inhibition constant Ki is above 10 µM.

In turn, `CC(=O)C(=NNc1ccccc1C(F)(F)F)Nc1cccc(Cl)c1` came in with a Ki of 0.538 µM.

With `CC(=O)/C(=N\c1cccc(F)c1)NNc1ccccc1Cl`, the Ki stood at 0.043 µM.

The molecule `CC(=O)C(=NNc1ccccc1C(F)(F)F)Nc1cccc(C(F)(F)F)c1` showed an inhibitory constant (Ki) above 10 µM.

`C#Cc1cccc(/N=C(/NNc2ccccc2Cl)C(C)=O)c1` displayed a Ki of 0.035 µM.

`CC(=O)/C(=N\c1cccc(C(F)(F)F)c1)NNc1ccccc1C` returned an inhibition constant Ki of 0.291 µM.

Regarding `CC(=O)/C(=N\Nc1ccccc1Cl)N(C)c1cccc(Cl)c1`, the Ki was above 10 µM.

`CC(=O)/C(=N\Nc1ccccc1C(F)(F)F)N(C)c1cccc(Cl)c1` showed a Ki above 10 µM.

`CC(=O)/C(=N\c1ccc(Cl)cc1)NNc1ccccc1C` came in with an inhibition constant Ki of 1.83 µM.

Molecule `CC(=O)/C(=N\c1cccc(F)c1)NNc1ccccc1C(F)(F)F` came in with a Ki of 0.197 µM.

In turn, `CC(=O)/C(=N\Nc1ccccc1C#N)Nc1ccc(Cl)cc1` gave a Ki of 2.21 µM.

For `CC(=O)C(=NNc1ccccc1C#N)Nc1ccccc1`, the Ki was 1.08 µM.

Molecule `CC(=O)/C(=N\Nc1ccccc1C)N(C)c1cccc(Cl)c1` returned a Ki above 10 µM.

Take `CC(=O)/C(=N\Nc1ccccc1[N+](=O)[O-])Oc1cccc(Cl)c1`: the inhibition constant Ki was above 10 µM.

The molecule `CC(=O)/C(=N\Nc1ccccc1)Nc1cccc(Cl)c1` registered a Ki of 2.72 µM.

As for `CC(=O)/C(=N\c1ccccc1)NNc1ccccc1C`, the affinity corresponds to a Ki of 0.526 µM.

`CC(=O)/C(=N\c1ccccc1)NNc1ccccc1C(F)(F)F` returned an inhibitory constant (Ki) of 2.26 µM.

The molecule `CC(=O)C(=NNc1ccccc1C(F)(F)F)Nc1ccccc1Cl` gave a Ki above 10 µM.

`CC(=O)/C(=N\Nc1ccccc1C#N)N(C)c1cccc(Cl)c1` registered an inhibitory constant (Ki) above 10 µM.

`C#Cc1cccc(/N=C(/NNc2ccccc2C)C(C)=O)c1` displayed an inhibition constant (Ki) of 0.062 µM.

The molecule `CC(=O)/C(=N\c1ccc(Cl)cc1)NNc1ccccc1C(F)(F)F` showed an inhibition constant Ki above 10 µM.

Turning to `CSc1cccc(N/C(=N/Nc2ccccc2C(F)(F)F)C(C)=O)c1`, the Ki was above 10 µM.

Regarding `CC(=O)C(=NNc1ccccc1C(F)(F)F)Nc1cccc(C#N)c1`, the Ki was above 10 µM.

On to `CC(=O)C(=NNc1ccccc1)Nc1ccccc1`, for which the Ki came to 6.23 µM.

For the molecule `CC(=O)/C(=N\c1ccccc1Cl)NNc1ccccc1`, the inhibition constant Ki was above 10 µM.

Molecule `COc1cccc(NC(=NNc2ccccc2)C(C)=O)c1` returned an inhibitory constant (Ki) above 10 µM.

With `CC(=O)/C(=N\c1cccc(C)c1)NNc1ccccc1Cl`, the Ki was 0.115 µM.

With `CC(=O)C(=NNc1ccccc1[N+](=O)[O-])Nc1cccc(Cl)c1`, the affinity, expressed as Ki, was 0.051 µM.

`CC(=O)/C(=N\Nc1ccccc1C)Sc1cccc(Cl)c1`: the inhibition constant Ki was above 10 µM.

Take `CC(=O)C(=NNc1ccccc1S(C)(=O)=O)Nc1cccc(Cl)c1`: the inhibition constant Ki was above 10 µM.

The molecule `CSc1cccc(N/C(=N/Nc2ccccc2C)C(C)=O)c1` came in with a Ki above 10 µM.

`CCOc1cccc(N/C(=N/Nc2ccccc2C)C(C)=O)c1` yielded a Ki above 10 µM.

Consider `CC(=O)/C(=N\c1cccc(C)c1)NNc1ccccc1C`, for which the affinity corresponds to a Ki of 0.526 µM.

`C#Cc1cccc(NC(=NNc2ccccc2C(F)(F)F)C(C)=O)c1` had a Ki of 0.066 µM.

Take `CC(=O)/C(=N\Nc1ccccc1C#N)Nc1cccc(Cl)c1`: the affinity corresponds to a Ki of 0.415 µM.

On to `CC(=O)/C(=N\Nc1ccccc1)N(C)c1cccc(Cl)c1`, for which the Ki was above 10 µM.

With `CC(=O)/C(=N\Nc1ccccc1Cl)Sc1cccc(Cl)c1`, the inhibitory constant (Ki) is above 10 µM.

`CSc1cccc(N/C(=N/Nc2ccccc2Cl)C(C)=O)c1` displayed an inhibitory constant (Ki) above 10 µM.

Consider `CC(=O)/C(=N\Nc1ccccc1C)Oc1cccc(Cl)c1`, for which the inhibition constant (Ki) was above 10 µM.

The molecule `CC(=O)/C(=N\c1cccc(F)c1)NNc1ccccc1C` yielded a Ki of 0.043 µM.

`CC(=O)/C(=N\Nc1ccccc1)Oc1cccc(Cl)c1`: the Ki is above 10 µM.

Take `CCOc1cccc(NC(=NNc2ccccc2C(F)(F)F)C(C)=O)c1`: the inhibition constant (Ki) was above 10 µM.

In turn, `COc1cccc(N/C(=N/Nc2ccccc2C(F)(F)F)C(C)=O)c1` came in with a Ki of 6.95 µM.

Turning to `CC(=O)/C(=N\Nc1ccccc1C(F)(F)F)Oc1cccc(Cl)c1`, the Ki was above 10 µM.

`CCOc1cccc(NC(=NNc2ccccc2Cl)C(C)=O)c1` registered a Ki above 10 µM.

`CC(=O)/C(=N\c1ccccc1Cl)NNc1ccccc1C` registered a Ki above 10 µM.

Molecule `CC(=O)/C(=N\c1ccccc1Cl)NNc1ccccc1Cl` registered an inhibition constant Ki above 10 µM.

Molecule `CC(=O)/C(=N\c1ccccc1)NNc1ccccc1Cl` returned a Ki of 0.299 µM.

Take `COc1cccc(N/C(=N/Nc2ccccc2Cl)C(C)=O)c1`: the Ki was determined as 0.652 µM.

For the molecule `CC(=O)/C(=N\c1cccc(C#N)c1)NNc1ccccc1C`, the Ki is above 10 µM.

Take `CC(=O)/C(=N\c1cccc(Cl)c1)NNc1ccc(Br)cc1`: the Ki was 1.46 µM.

`CC(=O)/C(=N\Nc1ccccc1C#N)Oc1cccc(C)c1` showed a Ki of 0.65 µM.

`CC(=O)/C(=N\c1ccc(Cl)cc1)NNc1ccccc1` had a Ki above 10 µM.

The record behind these values is ChEMBL document CHEMBL1135413, “Arylamidrazones as novel corticotropin releasing factor receptor antagonists” (J Med Chem, 2002).
